Measurements as given in ChEMBL document CHEMBL4346657, “Anticancer activity, dual prooxidant/antioxidant effect and apoptosis induction profile of new bichalcophene-5-carboxamidines” (Eur J Med Chem, 2019).
Calls of active or inactive are those of the source. The calls are words filed in the database; no cut-off is given here.

Key:
UO-31 = test: Antiproliferative activity against human UO31 cells assessed as growth inhibition after 48 hrs by sulforhodamine B assay; type: functional; conditions: UO-31, 48 h
TK-10 = test: Antiproliferative activity against human TK10 cells assessed as growth inhibition after 48 hrs by sulforhodamine B assay; type: functional; conditions: TK-10, 48 h
[1] = tested on: Panel NCI-60 (60 carcinoma cell lines); test: Antiproliferative activity against human NCI60 cells assessed as growth inhibition after 48 hrs by sulforhodamine B assay; type: functional
PC-3 = test: Antiproliferative activity against human PC3 cells assessed as growth inhibition after 48 hrs by sulforhodamine B assay; type: functional; conditions: PC-3, 48 h
MDA-MB-231 = test: Antiproliferative activity against human MDA-MB-231/ATCC cells assessed as growth inhibition after 48 hrs by sulforhodamine B assay; type: functional; conditions: MDA-MB-231, 48 h
OVCAR-3 = test: Antiproliferative activity against human OVCAR3 cells assessed as growth inhibition after 48 hrs by sulforhodamine B assay; type: functional; conditions: OVCAR-3, 48 h
MCF7 = test: Antiproliferative activity against human MCF7 cells assessed as growth inhibition after 48 hrs by sulforhodamine B assay; type: functional; conditions: MCF7, 48 h
DU-145 = test: Antiproliferative activity against human DU145 cells assessed as growth inhibition after 48 hrs by sulforhodamine B assay; type: functional; conditions: DU-145, 48 h
SN12C = test: Antiproliferative activity against human SN12C cells assessed as growth inhibition after 48 hrs by sulforhodamine B assay; type: functional
RXF 393 = test: Antiproliferative activity against human RXF393 cells assessed as growth inhibition after 48 hrs by sulforhodamine B assay; type: functional; conditions: RXF 393, 48 h
CAKI-1 = test: Antiproliferative activity against human CAKI-1 cells assessed as growth inhibition after 48 hrs by sulforhodamine B assay; type: functional; conditions: CAKI-1, 48 h
786-0 = test: Antiproliferative activity against human 786-0 cells assessed as growth inhibition after 48 hrs by sulforhodamine B assay; type: functional; conditions: 786-0, 48 h
SK-OV-3 = test: Antiproliferative activity against human SKOV3 cells assessed as growth inhibition after 48 hrs by sulforhodamine B assay; type: functional; conditions: SK-OV-3, 48 h
OVCAR-8 = test: Antiproliferative activity against human OVCAR8 cells assessed as growth inhibition after 48 hrs by sulforhodamine B assay; type: functional; conditions: OVCAR-8, 48 h
OVCAR-5 = test: Antiproliferative activity against human OVCAR5 cells assessed as growth inhibition after 48 hrs by sulforhodamine B assay; type: functional; conditions: OVCAR-5, 48 h
OVCAR-4 = test: Antiproliferative activity against human OVCAR4 cells assessed as growth inhibition after 48 hrs by sulforhodamine B assay; type: functional; conditions: OVCAR-4, 48 h
UACC-257 = test: Antiproliferative activity against human UACC257 cells assessed as growth inhibition after 48 hrs by sulforhodamine B assay; type: functional; conditions: UACC-257, 48 h
MDA-MB-435 = test: Antiproliferative activity against human MDA-MB-435 cells assessed as growth inhibition after 48 hrs by sulforhodamine B assay; type: functional; conditions: MDA-MB-435, 48 h
Malme-3M = test: Antiproliferative activity against human MALME-3M cells assessed as growth inhibition after 48 hrs by sulforhodamine B assay; type: functional
LOX IMVI = test: Antiproliferative activity against human LOXIMVI cells assessed as growth inhibition after 48 hrs by sulforhodamine B assay; type: functional
SNB-75 = test: Antiproliferative activity against human SNB75 cells assessed as growth inhibition after 48 hrs by sulforhodamine B assay; type: functional; conditions: SNB-75, 48 h
SF-539 = test: Antiproliferative activity against human SF539 cells assessed as growth inhibition after 48 hrs by sulforhodamine B assay; type: functional; conditions: SF-539, 48 h
SF-268 = test: Antiproliferative activity against human SF268 cells assessed as growth inhibition after 48 hrs by sulforhodamine B assay; type: functional; conditions: SF-268, 48 h
HCT-15 = test: Antiproliferative activity against human HCT15 cells assessed as growth inhibition after 48 hrs by sulforhodamine B assay; type: functional; conditions: HCT-15, 48 h
COLO 205 = test: Antiproliferative activity against human COLO205 cells assessed as growth inhibition after 48 hrs by sulforhodamine B assay; type: functional; conditions: COLO 205, 48 h
NCI-H460 = test: Antiproliferative activity against human NCI-H460 cells assessed as growth inhibition after 48 hrs by sulforhodamine B assay; type: functional; conditions: NCI-H460, 48 h
NCI-H23 = test: Antiproliferative activity against human NCI-H23 cells assessed as growth inhibition after 48 hrs by sulforhodamine B assay; type: functional; conditions: NCI-H23, 48 h
HOP-62 = test: Antiproliferative activity against human HOP62 cells assessed as growth inhibition after 48 hrs by sulforhodamine B assay; type: functional; conditions: HOP-62, 48 h
EKVX = test: Antiproliferative activity against human EKVX cells assessed as growth inhibition after 48 hrs by sulforhodamine B assay; type: functional
A549 = test: Antiproliferative activity against human A549/ATCC cells assessed as growth inhibition after 48 hrs by sulforhodamine B assay; type: functional; conditions: A549, 48 h
MOLT-4 = test: Antiproliferative activity against human MOLT4 cells assessed as growth inhibition after 48 hrs by sulforhodamine B assay; type: functional; conditions: MOLT-4, 48 h
BT-549 = test: Antiproliferative activity against human BT549 cells assessed as growth inhibition after 48 hrs by sulforhodamine B assay; type: functional; conditions: BT-549, 48 h
MDA-MB-468 = test: Antiproliferative activity against human MDA-MB-468 cells assessed as growth inhibition after 48 hrs by sulforhodamine B assay; type: functional; conditions: MDA-MB-468, 48 h
[2] = Haemolytic activity in human erythrocytes assessed as induction of hemolysis at 10 mM after 30 mins relative to H202; type: cell-based, Erythrocyte; conditions: read-out: Activity
[3] = Haemolytic activity in human erythrocytes assessed as induction of hemolysis at 5 mM after 30 mins relative to H202; type: cell-based, Erythrocyte; conditions: read-out: Activity
[4] = Antioxidant activity assessed as DPPH radical scavenging activity incubated in dark for 30 mins by spectrophotometric method relative to control; type: functional; parameters: concentration or dose not given beside the values
[5] = Antioxidant activity assessed as ABTS radical scavenging activity by spectrophotometric analysis relative to control; type: functional; parameters: concentration or dose not given beside the values; conditions: dose or concentration not given here
[6] = Antioxidant activity assessed as hydroxyl radical scavenging activity after 1 hr by salicylic acid-based Fenton reaction assay; type: functional
[7] = Pro-oxidant activity assessed as increase in bleomycin-Fe2+ induced calf thymus DNA damage at 2 mM after 1 hr by thiobarbituric acid based absorbance analysis
HCT-116 [8] = test: Induction of apoptosis in human HCT116 cells assessed as increase in caspase 3 mRNA expression at 100 nM after 6 hrs hrs by SYBR green dye-based qRT-PCR analysis relative to control; type: functional
HCT-116 [9] = test: Induction of apoptosis in human HCT116 cells assessed as increase in p53 mRNA expression at 100 nM after 6 hrs hrs by SYBR green dye-based qRT-PCR analysis relative to control; type: functional
HCT-116 [10] = test: […] in CDK1 mRNA expression in human HCT116 cells at 100 nM after 6 hrs hrs by SYBR green dye-based qRT-PCR analysis relative to control; type: functional

Molecule COc1cc(OC)cc(-c2ccc(-c3ccc(C(=N)N)o3)o2)c1 has a GI50 (UO-31) of 2.67 µM, a GI50 (TK-10) of 13.4 µM and a GI50 [1] of 3.02 µM. The LC50 [1] was 22.9 µM, the TGI [1] was 8.12 µM and the GI50 (PC-3) was 4.77 µM. It also gave a GI50 (MDA-MB-231) of 2.35 µM, a GI50 (OVCAR-3) of 3.26 µM and a GI50 (MCF7) of 1.8 µM. For the same molecule, the GI50 (DU-145) was 4.28 µM, the GI50 (SN12C) was 2.38 µM and the GI50 (RXF 393) was 1.93 µM. For the same molecule, the GI50 (CAKI-1) was 4.33 µM, the GI50 (786-0) was 4.15 µM and the GI50 (SK-OV-3) was 14.9 µM. It also gave a GI50 (OVCAR-8) of 3.75 µM, a GI50 (OVCAR-5) of 2.34 µM and a GI50 (OVCAR-4) of 3.51 µM. The GI50 (UACC-257) was 2.41 µM, the GI50 (MDA-MB-435) was 1.52 µM and the GI50 (Malme-3M) was 2.04 µM. For the same molecule, the GI50 (LOX IMVI) was 1.79 µM, the GI50 (SNB-75) was 2.2 µM and the GI50 (SF-539) was 1.83 µM. It also gave a GI50 (SF-268) of 3.4 µM, a GI50 (HCT-15) of 3.18 µM and a GI50 (COLO 205) of 1.84 µM. For the same molecule, the GI50 (NCI-H460) was 2.32 µM, the GI50 (NCI-H23) was 9.25 µM and the GI50 (HOP-62) was 5.65 µM. The GI50 (EKVX) was 5.09 µM, the GI50 (A549) was 3.78 µM and the GI50 (MOLT-4) was 2.44 µM. It also gave a GI50 (BT-549) of 6.91 µM, a GI50 (MDA-MB-468) of 2.41 µM and a hemolysis at 0.5 h, 10000 µM [2] of 19.3%. For the same molecule, the hemolysis at 0.5 h, 5000 µM [3] was 7.5%, the inhibition [4] was 31% and the inhibition [5] was 36%. The Activity [6] was “Active”, the Activity [7] was “Active” and the “fold change (FC)” value (HCT-116 [8]) was 4.1. The “fold change (FC)” value (HCT-116 [9]) was 0.9 and the “fold change (FC)” value (HCT-116 [10]) was 1.24.
Work on COc1ccc(-c2ccc(-c3ccc(C(=N)N)o3)o2)cc1 yielded a GI50 (UO-31) of 1.72 µM, a GI50 (TK-10) of 7.97 µM and a GI50 [1] of 1.74 µM. For the same molecule, the LC50 [1] was 20.4 µM, the TGI [1] was 5.89 µM and the GI50 (PC-3) was 1.88 µM. For the same molecule, the GI50 (MDA-MB-231) was 1.9 µM, the GI50 (OVCAR-3) was 0.92 µM and the GI50 (MCF7) was 0.33 µM. It also gave a GI50 (DU-145) of 1.91 µM, a GI50 (SN12C) of 2.02 µM and a GI50 (RXF 393) of 2.12 µM. For the same molecule, the GI50 (CAKI-1) was 1.75 µM, the GI50 (786-0) was 2.22 µM and the GI50 (SK-OV-3) was 5.63 µM. For the same molecule, the GI50 (OVCAR-8) was 3.19 µM, the GI50 (OVCAR-5) was 2.43 µM and the GI50 (OVCAR-4) was 2.22 µM. It also gave a GI50 (UACC-257) of 11.1 µM, a GI50 (MDA-MB-435) of 0.29 µM and a GI50 (Malme-3M) of 3.97 µM. For the same molecule, the GI50 (LOX IMVI) was 1.48 µM, the GI50 (SNB-75) was 1.47 µM and the GI50 (SF-539) was 1.89 µM. It also gave a GI50 (SF-268) of 2.04 µM, a GI50 (HCT-15) of 0.67 µM and a GI50 (COLO 205) of 1.25 µM. For the same molecule, the GI50 (NCI-H460) was 1.17 µM, the GI50 (NCI-H23) was 4.34 µM and the GI50 (HOP-62) was 1.5 µM. For the same molecule, the GI50 (EKVX) was 2.79 µM, the GI50 (A549) was 1.49 µM and the GI50 (MOLT-4) was 1.2 µM. It also gave a GI50 (BT-549) of 4.55 µM, a GI50 (MDA-MB-468) of 0.86 µM and a hemolysis at 0.5 h, 10000 µM [2] of 71.7%. For the same molecule, the hemolysis at 0.5 h, 5000 µM [3] was 36.3%, the inhibition [4] was 61.7% and the inhibition [5] was 69.2%. The Activity [6] was “Active”, the Activity [7] was “Active” and the “fold change (FC)” value (HCT-116 [8]) was 2.67. The “fold change (FC)” value (HCT-116 [9]) was 0.94 and the “fold change (FC)” value (HCT-116 [10]) was 1.02.
